From patent US9833497B2, “Human originated EGF domain proteins and use of the same” (CHENGDU SOURCEBIO LIMITED-LIABILITY COMPANY, priority 2013, dated 2017)

Columns and labels:
Format in all cases: cell-based
E. coli DH5α = assay: Antibacterial activity: MIC and growth curve against E. coli DH5α in 96-well plate; conditions: minimal inhibitory concentration against E. coli DH5α; 96-well plate, 5×10^5 CFU/mL, 37° C., judged after 8 h
In short: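 MIC taken as lowest protein level with no bacterial growth, tracked by A600 every 30 min during 37 °C, 175 rpm culture. Two-fold protein series 50-12.5 μg/mL final, triplicate wells, against 5×10^5 CFU/mL of LB-washed mid-log cells.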

E. coli BL21 = assay: MIC against Gram-negative bacteria: E. coli BL21; conditions: for MIC against E. coli BL21 / MIC E. coli BL21 / MIC (μg/mL) E. coli BL21: 5×10^5 CFU/mL; for MIC E. coli BL21: two-fold serial dilution
In short: (§1)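 Antibacterial activity of purified human EGF domain proteins: two-fold concentration series, triplicate wells, LB broth, 5×10^5 CFU/mL bacteria, 37° C shaking incubation. The lowest concentration without growth defines the MIC.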

Pseudomonas aeruginosa = assay: MIC against Gram-negative bacteria: Pseudomonas aeruginosa; conditions: for MIC against P. aeruginosa / MIC P. aeruginosa / MIC (μg/mL) P. aeruginosa: 5×10^5 CFU/mL; for MIC P. aeruginosa: two-fold serial dilution; for MIC / MIC (μg/mL) P. aeruginosa: P. aeruginosa
In short: as §1

Klebsiella pneumonia = assay: MIC against Gram-negative bacteria: Klebsiella pneumonia; conditions: for MIC against K. pneumonia / MIC K. pneumonia / MIC (μg/mL) K. pneumonia: 5×10^5 CFU/mL; for MIC K. pneumonia: two-fold serial dilution; for MIC / MIC (μg/mL) K. pneumonia: K. pneumonia
In short: as §1

Enterobacter cloacae = assay: MIC against Gram-negative bacteria: Enterobacter cloacae; conditions: for MIC against E. cloacae / MIC E. cloacae / MIC (μg/mL) E. cloacae: 5×10^5 CFU/mL; for MIC E. cloacae: two-fold serial dilution; for MIC / MIC (μg/mL) E. cloacae: E. cloacae
In short: as §1

Aeromonas hydrophila = assay: MIC against Gram-negative bacteria: Aeromonas hydrophila; conditions: for MIC against A. hydrophila / MIC A. hydrophila / MIC (μg/mL) A. hydrophila: 5×10^5 CFU/mL; for MIC A. hydrophila: two-fold serial dilution; for MIC / MIC (μg/mL) A. hydrophila: A. hydrophila
In short: as §1

Citrobacter diversus = assay: MIC against Gram-negative bacteria: Citrobacter diversus; conditions: for MIC against C. diversus / MIC C. diversus / MIC (μg/mL) C. diversus: 5×10^5 CFU/mL; for MIC C. diversus: two-fold serial dilution; for MIC / MIC (μg/mL) C. diversus: C. diversus
In short: as §1

Moraxella catarrhalis = assay: MIC against Gram-negative bacteria: Moraxella catarrhalis; conditions: for MIC against M. catarrhalis / MIC M. catarrhalis / MIC (μg/mL) M. catarrhalis: 5×10^5 CFU/mL; for MIC M. catarrhalis: two-fold serial dilution; for MIC / MIC (μg/mL) M. catarrhalis: M. catarrhalis
In short: as §1

Proteus mirabilis = assay: MIC against Gram-negative bacteria: Proteus mirabilis; conditions: for MIC against P. mirabilis / MIC P. mirabilis / MIC (μg/mL) P. mirabilis: 5×10^5 CFU/mL; for MIC P. mirabilis: two-fold serial dilution; for MIC / MIC (μg/mL) P. mirabilis: P. mirabilis
In short: as §1

Proteus vulgaris = assay: MIC against Gram-negative bacteria: Proteus vulgaris; conditions: for MIC against P. vulgaris / MIC P. vulgaris / MIC (μg/mL) P. vulgaris: 5×10^5 CFU/mL; for MIC P. vulgaris: two-fold serial dilution; for MIC / MIC (μg/mL) P. vulgaris: P. vulgaris
In short: as §1

Serratia marcescens = assay: MIC against Gram-negative bacteria: Serratia marcescens; conditions: for MIC against S. marcescens / MIC S. marcescens / MIC (μg/mL) S. marcescens: 5×10^5 CFU/mL; for MIC S. marcescens: two-fold serial dilution; for MIC / MIC (μg/mL) S. marcescens: S. marcescens
In short: as §1

[1] = E. coli BL21, 10 h cultivation at 37° C.

PRT1345 (NINECSSSPCLNKGICVDGVAGYRCTCVKGFVGLHCE; listed as Homo sapiens)
50 µg/mL: MIC against P. aeruginosa (Pseudomonas aeruginosa; Pseudomonas aeruginosa, 10 h cultivation at 37° C.) | MIC against C. diversus (Citrobacter diversus; Citrobacter diversus, 10 h cultivation at 37° C.) | MIC against S. marcescens (Serratia marcescens; Serratia marcescens, 10 h cultivation at 37° C.)
12.5 µg/mL: MIC (E. coli DH5α) | MIC against E. cloacae (Enterobacter cloacae; Enterobacter cloacae, 10 h cultivation at 37° C.) | MIC against P. mirabilis (Proteus mirabilis; Proteus mirabilis, 10 h cultivation at 37° C.)
25 µg/mL: MIC against E. coli BL21 (E. coli BL21; [1]) | MIC against K. pneumonia (Klebsiella pneumonia; Klebsiella pneumonia, 10 h cultivation at 37° C.) | MIC against A. hydrophila (Aeromonas hydrophila; Aeromonas hydrophila, 10 h cultivation at 37° C.) | MIC against M. catarrhalis (Moraxella catarrhalis; Moraxella catarrhalis, 10 h cultivation at 37° C.) | MIC against P. vulgaris (Proteus vulgaris; Proteus vulgaris, 10 h cultivation at 37° C.)

PRT510 (CDCFLPGTDATTCDSETKKCSCSDQTGQCTCKVNVEGIHCDRCRPGKFGLDAKNPLGCSS; listed as Homo sapiens)
25 µg/mL: MIC against E. coli BL21 (E. coli BL21; 96-well plate, 37° C., 10 h) | MIC against K. pneumonia (Klebsiella pneumonia; 96-well plate, 37° C., 10 h) | MIC against A. hydrophila (Aeromonas hydrophila; 96-well plate, 37° C., 10 h) | MIC against M. catarrhalis (Moraxella catarrhalis; 96-well plate, 37° C., 10 h) | MIC against P. vulgaris (Proteus vulgaris; 96-well plate, 37° C., 10 h)
12.5 µg/mL: MIC against P. aeruginosa (Pseudomonas aeruginosa; 96-well plate, 37° C., 10 h) | MIC against C. diversus (Citrobacter diversus; 96-well plate, 37° C., 10 h) | MIC against S. marcescens (Serratia marcescens; 96-well plate, 37° C., 10 h)
50 µg/mL: MIC (E. coli DH5α) | MIC against E. cloacae (Enterobacter cloacae; 96-well plate, 37° C., 10 h) | MIC against P. mirabilis (Proteus mirabilis; 96-well plate, 37° C., 10 h)

PRT1119 (EVLECASAPCEHNASCLEGLGSFRCLCWPGYSGELCE; listed as Homo sapiens)
50 µg/mL: MIC P. aeruginosa (Pseudomonas aeruginosa; 10 h cultivation at 37° C.) | MIC C. diversus (Citrobacter diversus; 10 h cultivation at 37° C.) | MIC S. marcescens (Serratia marcescens; 10 h cultivation at 37° C.)
100 µg/mL: MIC (E. coli DH5α)
12.5 µg/mL: MIC E. cloacae (Enterobacter cloacae; 10 h cultivation at 37° C.) | MIC P. mirabilis (Proteus mirabilis; 10 h cultivation at 37° C.)
25 µg/mL: MIC E. coli BL21 (E. coli BL21; 10 h cultivation at 37° C.) | MIC K. pneumonia (Klebsiella pneumonia; 10 h cultivation at 37° C.) | MIC A. hydrophila (Aeromonas hydrophila; 10 h cultivation at 37° C.) | MIC M. catarrhalis (Moraxella catarrhalis; 10 h cultivation at 37° C.) | MIC P. vulgaris (Proteus vulgaris; 10 h cultivation at 37° C.)

PRT1008 (ELDACQSQPCHNHGTCTPKPGGFHCACPPGFVGLRCE; listed as Homo sapiens)
25 µg/mL: MIC (Proteus mirabilis; 10 h cultivation at 37° C.) | MIC (Serratia marcescens; 10 h cultivation at 37° C.)
12.5 µg/mL: MIC (E. coli BL21; [1]) | MIC (Pseudomonas aeruginosa; 10 h cultivation at 37° C.) | MIC (Klebsiella pneumonia; 10 h cultivation at 37° C.) | MIC (Aeromonas hydrophila; 10 h cultivation at 37° C.) | MIC (Moraxella catarrhalis; 10 h cultivation at 37° C.)
50 µg/mL: MIC (E. coli DH5α) | MIC (Enterobacter cloacae; 10 h cultivation at 37° C.) | MIC (Citrobacter diversus; 10 h cultivation at 37° C.) | MIC (Proteus vulgaris; 10 h cultivation at 37° C.)

PRT1115 (PTLPCEANPCLNGGTCRAAGGVSECICNARFSGQFCE; listed as Homo sapiens)
12.5 µg/mL: MIC P. aeruginosa (Pseudomonas aeruginosa; 10 h cultivation at 37° C.) | MIC E. cloacae (Enterobacter cloacae; 10 h cultivation at 37° C.) | MIC A. hydrophila (Aeromonas hydrophila; 10 h cultivation at 37° C.) | MIC C. diversus (Citrobacter diversus; 10 h cultivation at 37° C.) | MIC M. catarrhalis (Moraxella catarrhalis; 10 h cultivation at 37° C.) | MIC P. mirabilis (Proteus mirabilis; 10 h cultivation at 37° C.) | MIC P. vulgaris (Proteus vulgaris; 10 h cultivation at 37° C.) | MIC S. marcescens (Serratia marcescens; 10 h cultivation at 37° C.)
25 µg/mL: MIC E. coli BL21 (E. coli BL21; 10 h cultivation at 37° C.)
50 µg/mL: MIC (E. coli DH5α) | MIC K. pneumonia (Klebsiella pneumonia; 10 h cultivation at 37° C.)

PRT230 (DVDECADPRACPEHATCNNTVGNYSCFCNPGFESSSGHLSFQGLKASCE; listed as Homo sapiens)
12.5 µg/mL: MIC (μg/mL) E. coli BL21 (E. coli BL21; [1]) | MIC (μg/mL) K. pneumonia (Klebsiella pneumonia; 10 h cultivation at 37° C.) | MIC (μg/mL) A. hydrophila (Aeromonas hydrophila; 10 h cultivation at 37° C.) | MIC (μg/mL) M. catarrhalis (Moraxella catarrhalis; 10 h cultivation at 37° C.) | MIC (μg/mL) P. vulgaris (Proteus vulgaris; 10 h cultivation at 37° C.)
50 µg/mL: MIC (μg/mL) P. mirabilis (Proteus mirabilis; 10 h cultivation at 37° C.) | MIC (μg/mL) S. marcescens (Serratia marcescens; 10 h cultivation at 37° C.)
25 µg/mL: MIC (E. coli DH5α) | MIC (μg/mL) P. aeruginosa (Pseudomonas aeruginosa; 10 h cultivation at 37° C.) | MIC (μg/mL) E. cloacae (Enterobacter cloacae; 10 h cultivation at 37° C.) | MIC (μg/mL) C. diversus (Citrobacter diversus; 10 h cultivation at 37° C.)

PRT1152 (HASPCSLMKCGNGGTCIESGTSVYCNCTTGWKGSFCT; listed as Homo sapiens)
25 µg/mL: MIC E. coli BL21 (E. coli BL21; 10 h cultivation at 37° C.) | MIC K. pneumonia (Klebsiella pneumonia; 10 h cultivation at 37° C.) | MIC P. vulgaris (Proteus vulgaris; 10 h cultivation at 37° C.)
12.5 µg/mL: MIC (E. coli DH5α) | MIC P. aeruginosa (Pseudomonas aeruginosa; 10 h cultivation at 37° C.) | MIC E. cloacae (Enterobacter cloacae; 10 h cultivation at 37° C.) | MIC A. hydrophila (Aeromonas hydrophila; 10 h cultivation at 37° C.) | MIC C. diversus (Citrobacter diversus; 10 h cultivation at 37° C.) | MIC M. catarrhalis (Moraxella catarrhalis; 10 h cultivation at 37° C.) | MIC P. mirabilis (Proteus mirabilis; 10 h cultivation at 37° C.)
50 µg/mL: MIC S. marcescens (Serratia marcescens; 10 h cultivation at 37° C.)

PRT185 (ELSECDSNPCRNGGSCKDQEDGYHCLCPPGYYGLHCE; listed as Homo sapiens)
50 µg/mL: MIC (E. coli DH5α) | MIC (μg/mL) E. cloacae (Enterobacter cloacae; 10 h cultivation at 37° C.) | MIC (μg/mL) M. catarrhalis (Moraxella catarrhalis; 10 h cultivation at 37° C.) | MIC (μg/mL) S. marcescens (Serratia marcescens; 10 h cultivation at 37° C.)
25 µg/mL: MIC (μg/mL) E. coli BL21 (E. coli BL21; [1]) | MIC (μg/mL) K. pneumonia (Klebsiella pneumonia; 10 h cultivation at 37° C.) | MIC (μg/mL) A. hydrophila (Aeromonas hydrophila; 10 h cultivation at 37° C.)
12.5 µg/mL: MIC (μg/mL) P. aeruginosa (Pseudomonas aeruginosa; 10 h cultivation at 37° C.) | MIC (μg/mL) C. diversus (Citrobacter diversus; 10 h cultivation at 37° C.) | MIC (μg/mL) P. mirabilis (Proteus mirabilis; 10 h cultivation at 37° C.) | MIC (μg/mL) P. vulgaris (Proteus vulgaris; 10 h cultivation at 37° C.)

PRT975 (LVDWCSRQPCQNGGRCVQTGAYCLCPPGWSGRLCD; listed as Homo sapiens)
12.5 µg/mL: MIC (E. coli BL21; [1]) | MIC (Klebsiella pneumonia; 10 h cultivation at 37° C.) | MIC (Citrobacter diversus; 10 h cultivation at 37° C.) | MIC (Moraxella catarrhalis; 10 h cultivation at 37° C.) | MIC (Proteus vulgaris; 10 h cultivation at 37° C.)
50 µg/mL: MIC (Pseudomonas aeruginosa; 10 h cultivation at 37° C.) | MIC (Aeromonas hydrophila; 10 h cultivation at 37° C.) | MIC (Proteus mirabilis; 10 h cultivation at 37° C.)
25 µg/mL: MIC (E. coli DH5α) | MIC (Enterobacter cloacae; 10 h cultivation at 37° C.) | MIC (Serratia marcescens; 10 h cultivation at 37° C.)

PRT1304 (ARDPCLGHRCHHGKCVATGTSYMCKCAEGYGGDLCD; listed as Homo sapiens)
25 µg/mL: MIC (E. coli DH5α) | MIC against P. aeruginosa (Pseudomonas aeruginosa; Pseudomonas aeruginosa, 96-well plate, 37° C., 10 h) | MIC against A. hydrophila (Aeromonas hydrophila; Aeromonas hydrophila, 96-well plate, 37° C., 10 h) | MIC against M. catarrhalis (Moraxella catarrhalis; Moraxella catarrhalis, 96-well plate, 37° C., 10 h) | MIC against P. vulgaris (Proteus vulgaris; Proteus vulgaris, 96-well plate, 37° C., 10 h)
12.5 µg/mL: MIC against E. coli BL21 (E. coli BL21; E. coli BL21, 96-well plate, 37° C., 10 h) | MIC against K. pneumonia (Klebsiella pneumonia; Klebsiella pneumonia, 96-well plate, 37° C., 10 h) | MIC against E. cloacae (Enterobacter cloacae; Enterobacter cloacae, 96-well plate, 37° C., 10 h) | MIC against C. diversus (Citrobacter diversus; Citrobacter diversus, 96-well plate, 37° C., 10 h) | MIC against P. mirabilis (Proteus mirabilis; Proteus mirabilis, 96-well plate, 37° C., 10 h) | MIC against S. marcescens (Serratia marcescens; Serratia marcescens, 96-well plate, 37° C., 10 h)
